The target of test [1] is T1, RET(KD: 658-1114 G810R) (Homo sapiens, UniProt P07949, G810R).
T1 construct: 658-1114; expressed in transfected cells; host or cells: 293T.165 (293T cells, generated in-house)
T1 sequence (P07949 658-1114 G810R): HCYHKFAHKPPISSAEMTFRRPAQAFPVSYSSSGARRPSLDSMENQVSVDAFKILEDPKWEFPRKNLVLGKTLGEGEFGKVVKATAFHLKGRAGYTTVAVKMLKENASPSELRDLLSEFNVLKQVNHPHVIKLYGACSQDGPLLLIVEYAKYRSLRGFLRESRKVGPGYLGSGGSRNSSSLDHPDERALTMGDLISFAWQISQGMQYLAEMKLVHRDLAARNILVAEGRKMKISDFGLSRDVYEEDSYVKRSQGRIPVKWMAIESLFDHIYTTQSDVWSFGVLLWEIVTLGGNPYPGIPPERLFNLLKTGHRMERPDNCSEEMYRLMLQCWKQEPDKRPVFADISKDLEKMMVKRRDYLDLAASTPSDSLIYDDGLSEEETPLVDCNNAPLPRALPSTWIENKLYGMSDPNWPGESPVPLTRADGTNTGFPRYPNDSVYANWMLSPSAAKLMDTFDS
In words: HiBiT-Degradation, RET G810R degradation assay (Nano-Glo HiBiT Lytic), 293T.165 cells. The class given is cell-based. The note with it: for Emax / DC50: 6.0 hours; for Emax: % remaining protein, read-out: 293T.165 RET(KD: 658-1114 G810R) 6.0 hours (Emax); for DC50: read-out: 293T.165 RET(KD: 658-1114 G810R) 6.0 hours (DC50). In outline: (§1)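 Degradation after 6 h compound exposure (top 10 μM, 11 half-log points, duplicates) measured by Nano-Glo HiBiT lytic luminescence. Cells: 293T.144 carrying wild-type and 293T.165 carrying G810R HiBiT-RET kinase domain; curves yield DC50 and Emax.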

For test [2], the target named is T2, RET (658-1114) (Homo sapiens, UniProt P07949).
T2 construct: 658-1114; expressed in transfected cells; host or cells: 293T.144 (293T cells, generated in-house)
T2 sequence (P07949 658-1114): T1 sequence (P07949 658-1114 G810R) with R153G
In words: HiBiT-Degradation, RET wild-type degradation assay (Nano-Glo HiBiT Lytic), 293T.144 cells. The class given is cell-based. The note with it: for DC50 / Emax: 6.0 hours; for DC50: read-out: 293T.144 RET (658-1114) 6.0 hours (DC50); for Emax: read-out: 293T.144 RET (658-1114) 6.0 hours (Emax). The gist of the method:
as §1

The mark [3] stands for this setting: half-maximal degradation concentration.

Changes are numbered by the printed parent chain. Where two headings read alike, the source gives them in different places. Bounds are passed on as bounds.

Broadly, the Emax is the maximal effect, on the per cent scale that the assay sets. As usually defined, the DC50 is the midpoint of the concentration-degradation curve.

Turning to `CCC1(C(=O)NC(C)C)CCN(c2ccc(-c3nc(-c4cnn(C5CCN(C(=O)CC6(O)CCN(c7ccc(NC8CCC(=O)NC8=O)cc7F)CC6)CC5)c4)cn4ncc(C#N)c34)cn2)CC1` (stereo not shown) [Compound 30, 1-(5-(3-Cyano-6-(1-(1-(2-(1-(4-((2,6-dioxopiperidin-3-yl)amino)-2-fluorophenyl)-4-hydroxypiperidin-4-yl)acetyl)piperidin-4-yl)-1H-pyrazol-4-yl)pyrazolo[1,5-a]pyrazin-4-yl)pyridin-2-yl)-4-ethyl-N-isopropylpiperidine-4-carboxamide], the Emax in test [1] is < 50%. For the same compound, the 50% degradation concentration (DC50) in test [1] (setting [3]) is < 50 nM. Also, in test [1] (HiBiT-Degradation), the “293T.165 RET(KD: 658-1114 G810R) 6.0 hours (Emax)” value is “+++ (<50% = +++)”, the “293T.165 RET(KD: 658-1114 G810R) 6.0 hours (IP) [nM]” value is on record as “++++ (< 50 nM = ++++)” and the DC50 is < 50 nM. Also, in test [2] (HiBiT-Degradation), the “293T.144 RET (658-1114) 6.0 hours (IP) [nM]” value (from here on “293T.144 RET”) was “++++ (< 50 nM = ++++)”, the DC50 is < 50 nM and the Emax was < 30%.

For `N#Cc1cnn2cc(-c3ccc(N4CCN(C(=O)CC5(O)CCN(c6ccc(NC7CCC(=O)NC7=O)cc6)CC5)CC4)cc3)cc(-c3ccc(N4CCN(C(=O)Cc5ccc(F)cn5)CC4)nc3)c12` (stereo not shown) [Compound 49, 6-[4-[4-[2-[1-[4-[(2,6-dioxo-3-piperidyl)amino]phenyl]-4-hydroxy-4-piperidyl]acetyl]piperazin-1-yl]phenyl]-4-[6-[4-[2-(5-fluoro-2-pyridyl)acetyl]piperazin-1-yl]-3-pyridyl]pyrazolo[1,5-a]pyridine-3-carbonitrile], the Emax in test [1] is < 50%. Besides, the DC50 in test [1] (setting [3]) was < 100 nM. In test [1] (HiBiT-Degradation), the “293T.165 RET(KD: 658-1114 G810R) 6.0 hours (Emax)” value is recorded as “+++ (<50% = +++)”, the “293T.165 RET(KD: 658-1114 G810R) 6.0 hours (IP) [nM]” value is on record as “++++ (< 50 nM = ++++)” and the DC50 was < 100 nM. In test [2] (HiBiT-Degradation), the “293T.144 RET” value is given as “++++ (< 50 nM = ++++)”, the DC50 is < 50 nM and the maximal effect (Emax) is < 30%.

On to `C[C@H](c1ccccn1)N1CCN(c2ccc(-c3nc(-c4cnn(C5CCN(C(=O)CC6(O)CCN(c7ccc(NC8CCC(=O)NC8=O)cc7F)CC6)CC5)c4)cn4ncc(C#N)c34)cn2)CC1` (stereo partly drawn) [Compound 1, 6-[1-[1-[2-[1-[4-[(2,6-dioxo-3-piperidyl)amino]-2-fluoro-phenyl]-4-hydroxy-4-piperidyl]acetyl]-4-piperidyl]pyrazol-4-yl]-4-[6-[4-[(1R)-1-(2-pyridyl)ethyl]piperazin-1-yl]-3-pyridyl]pyrazolo[1,5-a]pyrazine-3-carbonitrile], for which the Emax in test [1] was < 50%. The DC50 in test [1] (setting [3]) is < 50 nM. Moreover, in test [1] (HiBiT-Degradation), the “293T.165 RET(KD: 658-1114 G810R) 6.0 hours (Emax)” value is reported as “+++ (<50% = +++)”, the “293T.165 RET(KD: 658-1114 G810R) 6.0 hours (IP) [nM]” value is “++++ (< 50 nM = ++++)” and the DC50 was < 50 nM. Moreover, in test [2] (HiBiT-Degradation), the “293T.144 RET” value is “++++ (< 50 nM = ++++)”, the DC50 is < 50 nM and the Emax was < 30%.

Consider `Cn1nc(N2CCC(=O)NC2=O)c2ccc(C3CCN(CC(=O)N4CCN(c5ccc(-c6cc(-c7ccc(N8CCN(Cc9ccccn9)CC8)nc7)c7c(C#N)cnn7c6)cc5)CC4)CC3)cc21` [Compound 65, 6-[4-[4-[2-[4-[3-(2,4-dioxohexahydropyrimidin-1-yl)-1-methyl-indazol-6-yl]-1-piperidyl]acetyl]piperazin-1-yl]phenyl]-4-[6-[4-(2-pyridylmethyl)piperazin-1-yl]-3-pyridyl]pyrazolo[1,5-a]pyridine-3-carbonitrile], for which, in test [1], the Emax was < 50%. Moreover, in test [1] (setting [3]), the DC50 is < 100 nM. Further, in test [1] (HiBiT-Degradation), the “293T.165 RET(KD: 658-1114 G810R) 6.0 hours (Emax)” value was “+++ (<50% = +++)”, the “293T.165 RET(KD: 658-1114 G810R) 6.0 hours (IP) [nM]” value is reported as “+++ (<100 nM = +++)” and the DC50 was < 100 nM. In test [2] (HiBiT-Degradation), the “293T.144 RET” value is listed as “++++ (< 50 nM = ++++)”, the DC50 was < 50 nM and the maximal response (Emax) was < 30%.

For `CCC1(C(=O)NC2CCOCC2)CCN(c2ccc(-c3nc(-c4cnn([C@H]5CC[C@H](N6CCC(c7ccc(N[C@H]8CCC(=O)NC8=O)cc7F)CC6)CC5)c4)cn4ncc(C#N)c34)cn2)CC1` (stereo in doubt) [Compound 144, 1-(5-(3-cyano-6-(1-((1S,4r)-4-(4-(4-(((S)-2,6-dioxopiperidin-3-yl)amino)-2-fluorophenyl)piperidin-1-yl)cyclohexyl)-1H-pyrazol-4-yl)pyrazolo[1,5-a]pyrazin-4-yl)pyridin-2-yl)-4-ethyl-N-(tetrahydro-2H-pyran-4-yl)piperidine-4-carboxamide], the “293T.165 RET(KD: 658-1114 G810R) 6.0 hours (IP) [nM]” value in test [1] is listed as “++++ (<50 nM = ++++)”. Also, the Emax in test [1] and in test [2] (% remaining protein) was < 30% each time. Further, the DC50 in test [1] (setting [3]) and in test [2] (setting [3]) was < 50 nM each time. Moreover, in test [2], the “293T.144 RET” value is on record as “++++ (<50 nM = ++++)”.

`CCC1(NC(=O)C(C)C)CCN(c2ccc(-c3nc(-c4cnn([C@H]5CC[C@@H](N6CCN(c7ccc8c(N9CCC(=O)NC9=O)nn(C)c8c7F)CC6)CC5)c4)cn4ncc(C#N)c34)cn2)CC1` (single isomer, unassigned) [Compound 125, N-(1-(5-(3-Cyano-6-(1-((1s, 4s)-4-(4-(3-(2,4-dioxotetrahydropyrimidin-1(2H)-yl)-7-fluoro-1-methyl-1H-indazol-6-yl)piperazin-1-yl)cyclohexyl)-1H-pyrazol-4-yl)pyrazolo[1,5-a]pyrazin-4-yl)pyridin-2-yl)-4-ethylpiperidin-4-yl)isobutyramide]: in test [1], the “293T.165 RET(KD: 658-1114 G810R) 6.0 hours (IP) [nM]” value was “++++ (<50 nM = ++++)”. Further, the Emax in test [1] and in test [2] (% remaining protein) was < 30% each time. Also, the DC50 in test [1] (setting [3]) and in test [2] (setting [3]) was < 50 nM each time. In addition, the “293T.144 RET” value in test [2] was “++++ (<50 nM = ++++)”.

Turning to `N#Cc1cnn2cc(-c3ccc(N4CCN(C(=O)CN5CCC(c6ccc(NC7CCC(=O)NC7=O)cc6)CC5)CC4)cc3)cc(-c3ccc(N4CC5CC5C4)nc3)c12` (stereo not shown) [Compound 17, 4-[6-(3-azabicyclo[3.1.0]hexan-3-yl)-3-pyridyl]-6-[4-[4-[2-[4-[4-[(2,6-dioxo-3-piperidyl)amino]phenyl]-1-piperidyl]acetyl]piperazin-1-yl]phenyl]pyrazolo[1,5-a]pyridine-3-carbonitrile], the Emax in test [1] was < 30%. Also, the DC50 in test [1] (setting [3]) was < 50 nM. For the same compound, in test [1] (HiBiT-Degradation), the “293T.165 RET(KD: 658-1114 G810R) 6.0 hours (Emax)” value is “++++ (< 30% = ++++)”, the “293T.165 RET(KD: 658-1114 G810R) 6.0 hours (IP) [nM]” value was “++++ (< 50 nM = ++++)” and the DC50 is < 50 nM. Further, in test [2] (HiBiT-Degradation), the “293T.144 RET” value is “++++ (< 50 nM = ++++)”, the DC50 is < 50 nM and the Emax was < 30%.

For `N#Cc1cnn2cc(-c3cnn([C@H]4CC[C@H](N5CCN(c6ccc(N[C@H]7CCC(=O)NC7=O)cc6F)CC5)CC4)c3)nc(-c3ccc(N4CC5COCC(C4)N5Cc4ccccn4)nc3)c12` (single isomer, unassigned) [Compound 155], the “293T.165 RET(KD: 658-1114 G810R) 6.0 hours (IP) [nM]” value in test [1] was “++++ (<50 nM = ++++)”. Also, the Emax in test [1] and in test [2] (% remaining protein) was < 30% throughout. Also, the 50% degradation concentration (DC50) in test [1] (setting [3]) and in test [2] (setting [3]) was < 50 nM in each case. Moreover, the “293T.144 RET” value in test [2] was “++++ (<50 nM = ++++)”.

Values taken from US12661410B2, “Compounds for targeted degradation of RET” (C4 Therapeutics, Inc., priority 2020, dated 2026).
